# US5298523A, “Method for treating transplant patients using mycalamide compounds” (priority 1992, dated 1994)
# “Also recorded” adds a separate entry of the source.
# Key:
# [1] = tested on: graft vs. host reaction, CB6F1 mice grafted with BALB/c splenocytes; test: Graft vs. host reaction (Simonsen splenomegaly assay); type: in vivo, mouse; conditions: Experiment #2, 0.2 mg/kg i.p., Days 1-7
# Procedure: Graft vs. host reaction. In vivo studies with mycalamide A utilized the […]→F1, GVHR model (Simonsen splenomegaly assay). CB6F1 male mice, 4 weeks of age, were injected intraperitoneally with 5×10^7 splenocytes from BALB/c male mice, 8 weeks of age, on day 0 (BALB/c→CB6F1). A syngeneic control group (CB6F1 →CB6F1) was similarly prepared and served as the negative control. For experiment 1, the grafted mice were divided into 5 treatment groups of 5 mice each. Groups were injected intraperitoneally with mycalamide A (dissolved initially in ethanol followed by dilution in sterile phosphate-buffered saline as a vehicle) or vehicle alone on days 1-7. For experiment 2, the grafted mice were divided into 7 treatment groups of 5 mice each and similarly injected intraperitoneally with mycalamide A, an immunosuppressive standard, didemnin B, or vehicle alone on days 1-7. On day 7 all groups were sacrificed, spleens excised, and the mean spleen weight and stimulation index calculated for each group. The stimulation index was calculated as follows: [formula] A spleen index of 1.3 or greater is considered a positive response.
# ^a CB6F1 mice (5 per group) were grafted with 5 × 10^7
# BALB/c splenocytes, intraperitoneally on Day 0. Groups were injected
# intraperitoneally with drug or vehicle on Days 1-7. Positive indicates
# grafted mice receiving vehicle alone.
# ^b Number of surviving mice at the end of the experiment.
# ^c Stimulation index (SI) = (spleen weight of test group/body weight
# of test group)/(spleen weight of syngeneic group/body weight of syngeneic
# ^d Suppression = [(SI of positive control) (SI of test group)]/[(SI
# of positive control) (SI of syngeneic group)].
# ^e Didemnin B immunosuppressive standard.
# murine CD4^+ T cells [2] = test: Activation of CD4+ T cells by anti-CD3 mAb/mB7; type: cell-based, murine (BALB/c); conditions: anti-CD3/mB7
# Procedure: (§1) (A) Costimulation of T cells with anti-CD3 mAb and mB7. […] (B) Costimulation of T cells with mB7 and PMA. […] All cultures were incubated for 48 hours and pulsed with 1 μCi [ ^3 H] thymidine/well for the last 6 hours of the incubation period to assay for T cell proliferation.
# (§2) (A) Costimulation of T cells with anti-CD3 mAb and mB7. 2×10^5 purified BALB/c CD4^+ T lymphocytes were stimulated with the indicated concentrations of anti-CD3 mAb in the presence of medium (.largecircle.), 2×10^4 paraformaldehyde-fixed CHO-mB7 cells (.quadrature.), or 2×10^4 paraformaldehyde-fixed CHO-mB7 cells in the presence of 0.1 nM FK506 (.gradient.), 1 nM FK506 (Δ), or 10 nM FK506 ( ). (B) Costimulation of T cells with mB7 and PMA. 2×10^5 purified BALB/c CD4^+ T lymphocytes were stimulated with the indicated concentrations of PMA and either medium (.largecircle.), 2×10^4 paraformaldehyde-fixed CHO-mB7 cells (.quadrature.), or paraformaldehyde-fixed CHO-mB7 cells in the presence of 0.1 nM FK506 (.gradient.), 1 nM FK506 (Δ), or 10 nM FK506 ( ). All cultures were incubated for 48 hours and pulsed with 1 μCi [^3 H] thymidine/well for the last 6 hours of the incubation period to assay for T cell proliferation.
# as §2, with “pM mycalamide A” for “nM FK506”
# mB7-mediated activation of murine CD4^+ T cells. Mouse T cells were purified as follows: splenocytes were depleted of red blood cells by treatment with Tris-NH4 Cl. T cells were enriched by nylon wool fractionation. CD4^+ T cells from BALB/c mice were purified by two-fold treatment with a mixture of anti-MHC Class II and anti-CD8 monoclonal antibodies and rabbit complement. Chinese hamster ovary cells (CHO) and CHO cells transfected with the murine B7 molecule (CHOmB7) were fixed with 1% paraformaldehyde prior to addition to the cultures. Microcultures were set up in duplicate 96-well plates. […] All cultures were incubated for 48 hours and pulsed with 1 μCi ^3 H-thymidine/well for the last 6 hours of the incubation period to assay for T cell proliferation.
# murine CD4^+ T cells [3] = test: Activation of CD4+ T cells by PMA/mB7; type: cell-based, murine (BALB/c); conditions: in words
# Procedure: as §1, §2
# (A) Costimulation of T cells with anti-CD3 mAb and mB7. […]
# T cells = test: T cell viability by trypan blue exclusion; type: cell-based, murine; conditions: 1 nM
# Procedure: (§3) Determination of mycalamide A toxicity. The toxicity of mycalamide A on murine splenocytes and human PBL was determined using a colorimetric assay, based on the ability of viable cells to convert the colorless tetrazolium salt, 3-(4,5-dimethylthiazol-2yl)-2,5-diphenyl tetrazolium bromide (MTT) to a colored formazan product and trypan blue exclusion. For the colorimetric assay, a volume of 0.075 ml of an MTT solution (550 μg/ml of MTT in TCM) was added to test and control wells containing one of the populations of splenocytes or test wells and incubated for 5-6 hours following the initial incubation period. Microtiter plates were centrifuged at 100× g, supernatants carefully removed, and a volume of 0.20 ml of isopropyl alcohol was added to each well to dissolve the formazan crystals. The absorbance at 570 nm was determined for each well using an ELISA plate reader. […] As an additional parameter of toxicity, wells containing cultured lymphocytes with various dilutions of mycalamide A were examined with trypan blue, and the percentage of dye-excluding (viable) cells was determined.
# (§4) Compounds were added as indicated. Cells were harveste
# (§5) Each data point represents the mean value o
# [4] = T cell viability by trypan blue exclusion; type: cell-based, murine; conditions: t cells; 1 nM, Experiment 1, 20 hours; read-out: percentage of trypan blue-positive cells
# Procedure: as §3, §4, §5
SMILES,% Suppression [1] [%],Number of surviving mice at the end of the experiment [1],Stim. index [1],potency compared to CsA (murine CD4^+ T cells [2]; FK506 vs CsA),effect on anti-CD3/mB7 activation of CD4+ cells (murine CD4^+ T cells [2]; in words),effect on PMA/CHO-mB7 stimulation of CD4+ cells (murine CD4^+ T cells [3]),"number of cells excluding trypan blue (T cells; Experiment 1, 20 hours)","number of cells excluding trypan blue (T cells; Experiment 2, 20 hours)","percentage of trypan blue-positive cells (T cells; Experiment 2, 20 hours) [%]","cytotoxicity at 20 h, 0.001 µM [4] [%]"
"CC[C@H](C)[C@H]1NC(=O)[C@@H](NC(=O)[C@@H](CC(C)C)N(C)C(=O)[C@@H]2CCCN2C(=O)C(C)O)[C@@H](C)OC(=O)[C@H](Cc2ccc(OC)cc2)N(C)C(=O)[C@@H]2CCCN2C(=O)[C@H](CC(C)C)NC(=O)[C@@H](C)C(=O)[C@H](C(C)C)OC(=O)C[C@@H]1O (stereo partly shown) [Didemnin B, didemnin B, reference compound]",113,5/5,0.93,–,–,–,–,–,–,–
"C=CC[C@@H]1/C=C(\C)C[C@H](C)C[C@H](OC)[C@H]2O[C@@](O)(C(=O)C(=O)N3CCCC[C@H]3C(=O)O[C@H](/C(C)=C/[C@@H]3CC[C@@H](O)[C@H](OC)C3)[C@H](C)[C@@H](O)CC1=O)[C@H](C)C[C@@H]2OC [FK506, reference compound]",–,–,–,approximately 100 times,parallel those of CsA; also recorded: blocks the anti-CD3/mB7 activation of CD4^+ cells,not affected,1.40 × 10^6 cells,1.64 × 10^6 cells,< 2,< 2
